Laboratory results: publication PMC8972196, “A Set of Experimentally Validated Decoys for the Human CC Chemokine Receptor 7 (CCR7) Obtained by Virtual Screening” (Frontiers in Pharmacology, 2022)
Read-outs that look alike come from different tables or passages of the source.

Biological target: T1, human CCR7 (Homo sapiens, UniProt P32248)
T1 construct: expressed in transfected cells
T1 sequence (P32248 25-378): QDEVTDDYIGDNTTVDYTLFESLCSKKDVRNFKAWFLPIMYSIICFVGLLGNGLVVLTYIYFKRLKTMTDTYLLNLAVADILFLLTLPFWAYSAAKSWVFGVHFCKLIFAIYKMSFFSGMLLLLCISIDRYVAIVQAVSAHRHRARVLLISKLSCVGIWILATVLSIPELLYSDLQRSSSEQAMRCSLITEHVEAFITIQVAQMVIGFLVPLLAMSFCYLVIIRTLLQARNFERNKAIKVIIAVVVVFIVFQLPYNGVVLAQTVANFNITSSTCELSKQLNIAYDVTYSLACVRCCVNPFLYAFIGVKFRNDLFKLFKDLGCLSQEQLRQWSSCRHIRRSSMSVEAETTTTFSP
Assay: CCL19-induced calcium mobilization assay, U87.CD4 cells expressing CCR7
Assay type: cell-based
Conditions: for IC50: read-out: IC50 [μM] block CCL19 induced calcium signaling
Summary of the method: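 U87.CD4 cells stably expressing human CCR7, CXCR2 or CCR5 were seeded at 20,000 cells/well and incubated overnight at 37°C and 5% CO2. Cells were then incubated for 45 min at room temperature in the dark before calcium responses were recorded. CCR7 responses were induced with CCL19 and CXCR2 responses with CXCL8.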

[1] = CCL19 induced calcium signaling
[2] = classification as decoy or active on CCR7
[3] = CCL19-induced calcium signaling
[4] = classification of tested compounds as decoy or active

IC50 [3] | Decoy – 0 Active – 1 [4] | Structure (SMILES) | IC50 [1] | Decoy – 0 Active – 1 [2]
> 10 µM | 0 | CCc1ccc(C(NC(=O)C(=O)Nc2cccnc2C)C(C)(C)C)o1 (stereo not shown) [C069, CCc1ccc(C(NC(=O)C(=O)Nc2cccnc2C)C(C)(C)C)o1] | – | –
> 50 µM | 0 | O=C(c1ccnc(N[C@H]2CCCN(Cc3cccnc3)C2)c1)N1CCCC1 [C087, O=C(c1ccnc(N[C@H]2CCC[N@@H+](Cc3cccnc3)C2)c1)N1CCCC1] | – | –
> 50 µM | 0 | Cc1cccnc1[C@H](N[C@H]1CCN(CC(F)(F)F)C1=O)C(C)C [C138, Cc1cccnc1[C@H]([NH2+][C@H]1CCN(CC(F)(F)F)C1=O)C(C)C] | – | –
> 50 µM | 0 | FC(F)(F)c1cc(CNC(=S)NCc2ccccc2)cc(C(F)(F)F)c1 [C050, S=C(NCC1=CC=CC=C1)NCC2=CC(C(F)(F)F)=CC(C(F)(F)F)=C2] | – | –
> 50 µM | 0 | Cn1ccnc1[C@H](NC1=NS(=O)(=O)c2ccccc21)c1cccc(F)c1 [C153, Cn1ccnc1[C@H](NC1=NS(=O)(=O)c2ccccc21)c1cccc(F)c1] | – | –
> 50 µM | 0 | Cc1c(NC(=O)CN(C)Cc2ccc(F)cc2)cccc1C(=O)N(C)C [C099, Cc1c(NC(=O)C[N@H+](C)Cc2ccc(F)cc2)cccc1C(=O)N(C)C] | – | –

Further lines, the compound ahead of its results:

Structure (SMILES) | IC50 [3] | Decoy – 0 Active – 1 [4] | IC50 [1] | Decoy – 0 Active – 1 [2]
O=C(CCCc1c[nH]c2ccccc12)N1CCN(C(=O)CCCc2c[nH]c3ccccc23)CC1 [C209, O=C(CCCc1c[nH]c2ccccc12)N1CCN(C(=O)CCCc2c[nH]c3ccccc23)CC1] | – | – | > 50 µM | 0
Cc1cccc(C2(C(=O)NC3CCC(=O)N(C)C3)CCCC2)c1 (stereo not shown) [C220, Cc1cccc(C2(C(=O)NC3CCC(=O)N(C)C3)CCCC2)c1] | – | – | > 50 µM | 0
CCOC(=O)CNC(=S)Nc1ncccc1C [C043, CC1=CC=CN=C1NC(NCC(OCC)=O)=S] | > 30 µM | 0 | – | –
CCNC(=O)c1ccc(CNS(=O)(=O)c2ccc3c(c2)CCC3)cc1 [C261, CCNC(=O)c1ccc(cc1)CNS(=O)(=O)c2ccc3c(c2)CCC3] | – | – | > 50 µM | 0
CCOC(=O)NC(=S)Nc1ncccn1 [C045, S=C(NC(OCC)=O)NC1=NC=CC=N1] | > 30 µM | 0 | – | –
O=C(NCc1cccnc1-n1ccnc1)c1cc2ccccc2c(=O)[nH]1 [C215, O=C(NCc1cccnc1-n1ccnc1)c1cc2ccccc2c(=O)[nH]1] | – | – | > 50 µM | 0
CC(=O)N[C@@H](Cc1ccccc1)C(=O)N[C@H](C)c1ccccc1 [C144, CC(=O)N[C@@H](Cc1ccccc1)C(=O)N[C@H](C)c1ccccc1] | > 50 µM | 0 | – | –
O=C1CC(NC(=O)N2CCCC2c2ccccc2)CN1c1ccccc1 (stereo not shown) [C198, O=C1CC(NC(=O)N2CCCC2c2ccccc2)CN1c1ccccc1] | – | – | > 50 µM | 0
Cc1ccc(S(=O)(=O)N(CC(=O)Nc2cccc([N+](=O)[O-])c2)Cc2ccc(F)cc2)cc1 [C236, Cc1ccc(cc1)S(=O)(=O)N(Cc2ccc(cc2)F)CC(=O)Nc3cccc(c3)[N+](=O)[O-]] | – | – | > 50 µM | 0
CNC(=O)c1cccc(NC(=O)N2CC[C@@H](c3ccccc3)C2)c1C [C098, CNC(=O)c1cccc(NC(=O)N2CC[C@@H](c3ccccc3)C2)c1C] | > 50 µM | 0 | – | –
CCOC(=O)c1c(C)c(CCC(=O)N[C@H](C)c2ccccc2)c(C)n1C [C082, CCOC(=O)c1c(C)c(CCC(=O)N[C@H](C)c2ccccc2)c(C)n1C] | > 50 µM | 0 | – | –
O=c1[nH]c(NCC(O)c2ccc3ccccc3c2)nc2ccccc12 (stereo not shown) [C219, O=c1[nH]c(NCC(O)c2ccc3ccccc3c2)nc2ccccc12] | – | – | > 50 µM | 0
CN(C)C(=O)c1ccc(CN2CCCC[C@H]2CCn2cccn2)o1 [C105, CN(C)C(=O)c1ccc(C[N@H+]2CCCC[C@H]2CCn2cccn2)o1] | > 50 µM | 0 | – | –
CCCc1ccc(S(=O)(=O)NC2COc3ccc(OC)cc3C2)cc1 (stereo not shown) [C254, CCCc1ccc(cc1)S(=O)(=O)NC2Cc3cc(ccc3OC2)OC] | – | – | > 50 µM | 0
